Assay results as given in patent US5654296A, “Condensed heterocyclic compounds, their production and use” (priority 1994, dated 1997).
Counter-ions that a name gives are not always drawn.

How the values were obtained:
[1] = system: 45Ca2+ uptake (veratrine-stimulated, rat cerebral cortex crude synaptosome fraction); test: 45Ca2+ uptake inhibition experiment; assay type: biochemical; details: 30 μM veratrine, 37° C., 10 minutes, read-out: 45Ca2+ uptake inhibitory activity (IC50 μM)
Method: The rat cerebral cortex was homogenized in 10 volumes of ice-cooled 0.32M sucrose solution to prepare a crude synaptosome fraction (100×G, 10 min., 12000×G, 20 min.). […] To 900 μl of the homogenate was added a DMSO solution of the test drug (10 μl). The mixture was incubated at 37° C. for 10 minutes, followed by addition of 100 μl of a veratrine solution (containing 0.18 uci ^45 Ca^2+) at a final veratrine concentration of 30 μM. The mixture was incubated at 37° C. for 10 minutes, quenched with 4 ml of ice-cooled EGTA solution (120 mM sodium chloride, 5 mM potassium chloride, 5 mM EGTA, pH=7.5) and suction-filtered using a GF/B filter. The filter was washed twice with 4 ml each of a washing solution (132 mM sodium chloride, 5 mM potassium chloride, 1.3 mM magnesium chloride, 1.2 mM calcium, chloride, 20 mM Tris base, pH 7.5) and the radioactivity of […] was measured by the liquid scintillation method.
The ^45 Ca^2+ uptake inhibition rate was calculated by means of the following equation. [formula] A: The ^45 Ca^2+ uptake after 10 minutes' stimulation with 30 μM veratrine in the presence of the test drug
B: The ^45 Ca^2+ uptake in the absence of veratrine and in the presence of the test drug
C: The ^45 Ca^2+ uptake after 10 minutes' stimulation with 30 μM veratrine in the absence of the test drug
D: The ^45 Ca^2+ uptake in the absence of the test drug and in the absence of veratrine

[2] = target: T1, GnRH receptors (bovine pituitary anterior lobe membrane fraction) (Bos taurus, UniProt P32236); test: 125I-leuprolerin GnRH receptor binding inhibition test, bovine pituitary anterior lobe membrane fraction; details: 4° C., 90 minutes, read-out: Binding inhibitory activity (IC50 μM) Bovine
T1 construct: A bovine pituitary anterior lobe membrane fraction containing GnRH receptors was prepared; from tissue; host or cells: bovine pituitary anterior lobe, membrane fraction
T1 sequence (P32236 1-328): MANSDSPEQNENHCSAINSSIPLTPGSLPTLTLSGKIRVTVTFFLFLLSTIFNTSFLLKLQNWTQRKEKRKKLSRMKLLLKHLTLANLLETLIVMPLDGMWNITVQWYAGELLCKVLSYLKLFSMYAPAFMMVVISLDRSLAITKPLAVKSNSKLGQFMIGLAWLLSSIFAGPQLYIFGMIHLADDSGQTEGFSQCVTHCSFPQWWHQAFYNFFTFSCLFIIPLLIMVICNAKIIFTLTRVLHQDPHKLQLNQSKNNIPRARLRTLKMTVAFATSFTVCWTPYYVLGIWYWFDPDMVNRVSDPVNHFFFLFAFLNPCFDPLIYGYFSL
Method: Ten (10) μl of 3×10^4 M aqueous leuprolerin solution and 10 μl of 0.01 mg/ml lactoperoxidase were taken in a tube and 10 μl of Na^125 I solution (37 MBq) was added. After stirring, 10 μl of 0.001% H2 O2 was added and the reaction was conducted at room temperature for 20 minutes. Then, 700 μl of 0.05% TFA solution was added to the tube to terminate the reaction and the reaction mixture was purified by reverse-phase HPLC. The HPLC conditions are shown below. ^125 I-leuprolerin was eluted after a retention time of 26-27 minutes. (C) Preparation of a Bovine Pituitary Anterior Lobe Membrane Fraction Containing GnRH Receptors A bovine pituitary anterior lobe membrane fraction containing GnRH receptors was prepared by the same procedure as described under (B). However, a 10,000×G centrifugation supernatant was recentrifuged at 100,000×G for 1 hour to provide the membrane fraction pellet. […] For the rat and human membrane fractions prepared in (B) and (D), each membrane fraction was diluted with assay buffer to a concentration of 200 μg/ml and distributed in 188 μl portions into tubes. As to the bovine membrane fraction prepared in (C), the membrane fraction was diluted with assay buffer to 750 μg/ml and distributed in 188 μl portions into tubes. […] Where the rat or bovine pituitary anterior lobe membrane fraction was used, the reaction was conducted at 4° C. for 90 minutes. Where the membrane fraction of the CHO with human GnRH receptors expressed was used, the reaction was carried out at 25° C. for 60 minutes. […] After filtration, the radioactivity of ^125 I-leuprolerin remaining on the filter was measured with a γ-counter. The expression (TB-SB)/(TB-NSB)×100 (where SB=radioactivity with the compound added, TB=maximum bound radioactivity, NSB=nonspecifically bound radioactivity) was calculated to find the binding inhibition rate of each test compound.

[3] = system: norepinephrine (NE) uptake; test: Activity to inhibit norepinephrine (NE) uptake; assay type: biochemical; details: rat cerebral cortex; 3H-NE; read-out: NE uptake inhibitory activity (IC50 μM)
Method: The experiment was performed in accordance with the method of Hyttel et al. [Psychopharmacology 60, 13, 1978]. The whole brain of a rat was homogenized in 40 volumes of ice-cooled 0.32M sucrose solution containing 10 μM pargyline and, then, centrifuged (600×G) for 10 minutes. The supernatant was centrifuged (2500×G) for 55 minutes to provide a pellet. This pellet was suspended in Krebs-Ringer-phosphate buffer (pH 7.4; 122 mM NaCl, 4.82 mM KCl, 0.972 mM CaCl2, 1.21 mM MgSO4, 12.7 mM Na2 HPO4, 2.97 mM NaH2 PO4, 0.162 mM EDTA sodium, 10 mM glucose, 1.14 mM ascorbic acid) saturated with a mixed gas (95% O and 5% CO2). To 900 μl of this suspention was added a solution of the test drug (10 μl) in DMSO and the mixture was incubated at 37° C. for 5 minutes. Then, 100 μl of ^3 H-5-HT (final concentration 10 nM) was added and the mixture was further incubated at 37° C. for 5 minutes. This reaction mixture was filtered under suction using a GF/B filter and the filter was washed with 4 ml of the above-mentioned buffer. The radioactivity on the filter was measured by the liquid scintillation method.
(b) Activity to inhibit norepinephrine (NE) uptake
Using the rat cerebral cortex and, as the substrate, ^3 H-NE, an experiment was performed by otherwise the same procedure as described for 5-HT.

| Compound | IC50 [1] | IC50 [2] | IC50 [3] |
| --- | --- | --- | --- |
| COc1ccc2c(c1)CCC1(CCCCN1CCCC1(c3ccccc3)COCc3ccccc31)C2 (centres unmarked) [Example I-36, 3,4-Dihydro-6-methoxy-1'-[3-(4-phenylisochroman-4-yl)propyl]spiro[naphthalene-2(1H),2'-piperidine] hydrochloride] | 0.76 µM | 11 µM | 0.41 µM |
| c1ccc(C2(CCCN3CCCCC34CCc3ccccc3C4)COCc3ccccc32)cc1 (centres unmarked) [Example I-35, 3,4-Dihydro-1'-[3-(4-phenylisochroman-4-yl)propyl]spiro[naphthalene-2(1H),2'-piperidine] hydrochloride] | 0.14 µM | 6 µM | 0.3 µM |
| COc1cc2c(cc1OC)CC1(CCCCN1CCCCC1(c3ccccc3)COCc3ccccc31)CC2 (centres unmarked) [Example I-52, 3,4-Dihydro-6,7-dimethoxy-1'-[4-(4-phenylisochroman-4-yl)butyl]spiro[naphthalene-2(1H),2'-piperidine] hydrochloride] | – | 5 µM | – |
| COC(=O)c1cccc(CNCCCC2(c3ccccc3)COCc3ccccc32)c1 (stereo not drawn) [Example I-45, Methyl α-[3-(4-Phenylisochroman-4-yl)propylamino]-m-toluate hydrochloride] | – | 5 µM | – |
| c1ccc(CCNCCCC2(c3ccccc3)COCc3ccccc32)cc1 (stereo not drawn) [Example I-24, 4-[3-(β-Phenethylamino)propyl]-4-phenylisochroman hydrochloride] | 1.77 µM | 7 µM | 0.22 µM |
